Assays:
[1] = Cued conditioning acquisition (freezing during third tone of training); format: in vivo; conditions: ATAC, wild-type and AAV without FUS-BBBO mice
Method: (§1) Behavioral studies for fear conditioning were performed in sound-attenuated fear conditioning chambers (30×25×25 cm, Med Associates). Animals were trained and tested for context fear in Context A, which comprised a staggered wire grid floor, white light, 5% acetic acid for scent and no background noise. Locomotor testing was performed in Context B, which was differentiated from Context A by chamber shape, floor, illumination, odor, background noise and room location. Animal activity was recorded and quantified using Video Freeze software (Med Associates). For cued training, the tone was 80 dB and 30s.
Mice were injected with CNO (10 mg/kg, IP) or saline (IP), and after 40-60 minutes underwent context and cued fear conditioning in Context A. This timeframe was chosen to allow CNO to reach its pharmacokinetic peak[88]. A 3-minute initial baseline period was followed by 3×30-s presentations of a tone co-terminated with a 2-s foot shock (0.7 mA), with inter-trial interval of 60 s. After the trials, the mice remained in the context for an additional 60 s, after which they were transported back into the vivarium. After 24 h, mice were placed in Context A to record context fear for the duration of training (8 min. and 40 s). […]

[2] = biological target: T1, hM3Dq (Homo sapiens, UniProt P20309, A239G/Y149C); assay: Intersectional ATAC: c-Fos activation of TH-positive neurons in SNc/VTA of TH-CRE mice; format: in vivo, TH-CRE transgenic mice; parameters: expressed in transfected cells; host or cells: TH-positive neurons of SNc/VTA in TH-CRE transgenic mice, transduced in vivo with AAV9; conditions: CNO 1 mg/kg IP, 2 h; 9 weeks expression; n=5 mice
T1 sequence (P20309 whole entry Y149C/A239G): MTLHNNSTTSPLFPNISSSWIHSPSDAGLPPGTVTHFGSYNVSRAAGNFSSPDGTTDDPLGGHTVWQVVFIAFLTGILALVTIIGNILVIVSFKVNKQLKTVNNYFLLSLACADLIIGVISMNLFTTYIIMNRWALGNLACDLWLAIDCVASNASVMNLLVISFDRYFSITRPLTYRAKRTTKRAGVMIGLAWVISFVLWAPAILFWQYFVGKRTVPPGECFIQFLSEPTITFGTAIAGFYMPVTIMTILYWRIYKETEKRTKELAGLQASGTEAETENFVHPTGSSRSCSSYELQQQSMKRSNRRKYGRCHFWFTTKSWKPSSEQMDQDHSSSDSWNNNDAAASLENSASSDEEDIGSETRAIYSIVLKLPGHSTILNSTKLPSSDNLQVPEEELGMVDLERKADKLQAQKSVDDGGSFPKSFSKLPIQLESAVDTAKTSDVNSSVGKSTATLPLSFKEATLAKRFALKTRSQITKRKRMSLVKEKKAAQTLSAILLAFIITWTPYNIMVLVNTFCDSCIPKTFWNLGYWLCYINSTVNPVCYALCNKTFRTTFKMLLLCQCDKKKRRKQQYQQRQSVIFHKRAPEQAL
Method: After FUS-BBBO, the mice were imaged again using the same FLASH sequence to confirm opening of the BBB and appropriate targeting. Immediately afterwards, mice were placed in the home cage for recovery. The TH-CRE animals, aged 18 weeks, were subjected to FUS-BBBO using the same protocol, and using the same dose of AAV9, as for C57BL6J mice. All TH-CRE animals were females.
(§2) For activation of hippocampus, the histological evaluation was performed by an observer blinded to the identity (hM3Dq positive, or negative) of granular layer nuclei in dCA3. The expression status of the neurons was determined after the scoring of c-Fos positivity. The activation of TH neurons was evaluated by an observer blinded to the presence of FUS-BBBO targeting at a given site. TH-CRE mice expressed hM3Dq for 9 weeks after FUS-BBBO, and then were given 1 mg/kg CNO. After 2 h, they were anesthetized with ketamine/xylazine (80/10 mg/kg in PBS) and perfused using cold heparine/PBS (10 u) and then 10% NBF. […] A three-dimensional reference atlas[82] was used to choose the appropriate regions and brain sections for each mouse and contralateral and ipsilateral controls to ascertain consistency in choice of analyzed sections. […]

[3] = Exploratory behavior in novel environment (Context B, open field test); format: in vivo; conditions: all groups of mice (ATAC, AAV without FUS-BBBO, wild-type), 3 minutes
Method: as §1
Between 30 and 45 minutes after the context fear test, mice were transported to another room, placed in Context B and allowed to explore the chamber for 3 minutes while their activity was recorded. Due to automated data acquisition and evaluation, no blinding was necessary.
One day after fear conditioning, the mice were placed in a novel environment (Context B in FIG. 5, panel a), which they were allowed to explore freely for 3 minutes. The exploratory behavior of all groups of mice was likewise unaffected by CNO administration (FIG. 5, panel e-g).

[4] = biological target: T2, hM4Di (Homo sapiens, UniProt P08173, A203G/Y113C); assay: Context fear conditioning and recall (freezing in Context A) with hM4Di targeted to ventral and dorsal hippocampus; format: in vivo, mice
T2 construct: host or cells: mouse (C57BL6J) hippocampal excitatory neurons transduced in vivo with AAV9
T2 sequence (P08173 1-479 Y113C/A203G): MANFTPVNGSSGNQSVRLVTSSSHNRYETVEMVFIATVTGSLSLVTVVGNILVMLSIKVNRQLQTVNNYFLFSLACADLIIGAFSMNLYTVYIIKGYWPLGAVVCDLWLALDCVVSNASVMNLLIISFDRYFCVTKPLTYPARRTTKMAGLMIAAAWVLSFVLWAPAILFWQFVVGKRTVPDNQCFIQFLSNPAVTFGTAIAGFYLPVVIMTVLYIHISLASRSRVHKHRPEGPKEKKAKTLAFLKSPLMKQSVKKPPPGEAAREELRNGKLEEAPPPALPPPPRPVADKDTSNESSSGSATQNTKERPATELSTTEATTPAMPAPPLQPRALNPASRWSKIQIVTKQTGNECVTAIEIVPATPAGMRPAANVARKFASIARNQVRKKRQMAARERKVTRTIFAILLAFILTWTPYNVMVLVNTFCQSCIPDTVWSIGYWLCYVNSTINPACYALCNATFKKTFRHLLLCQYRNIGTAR
Method: as §1
Mice were injected with CNO (10 mg/kg, IP) or saline (IP), and after 40-60 minutes underwent context and cued fear conditioning in Context A. This timeframe was chosen to allow CNO to reach its pharmacokinetic peak[88]. A 3-minute initial baseline period was followed by 3×30-s presentations of a tone co-terminated with a 2-s foot shock (0.7 mA), with inter-trial interval of 60 s. After the trials, the mice remained in the context for an additional 60 s, after which they were transported back into the vivarium. After 24 h, mice were placed in Context A to record context fear for the duration of training (8 min. and 40 s).
Mice were recorded using automated near-infrared video tracking in the fear conditioning chamber using VideoFreeze software. Mouse motion was measured using the activity score, from a video recording at 30 frames/s, with the motion threshold set at 18 activity units (standard value set in software). Freezing was defined as an activity score below 18 units for at least 1 s. Average freezing in the context test was scored over the whole trial. Due to automated data acquisition and evaluation, no blinding was necessary.
mice were excluded from statistical analysis if their histologically determined DREADD expression was below 30% of cell bodies in dorsal CA3 region of the hippocampus. This threshold was chosen based on previous studies showing that behavioral effects generally require modulation of at least 30% of the neurons in a targeted region[89, 90] and dorsal CA3 being the most robustly transfected hippocampus region. The resulting analyzed groups had identical levels of expression (55.1% for Saline and 60.5% for CNO groups, p=0.26, heteroscedastic, two-tailed, t-test). […] Variability in gene expression may have been due to variability in intravenous injections of virus during the FUS-BBBO procedure, since we found no difference between these mice in T1 MRI signal enhancement post FUS-BBBO (FIG. 15, panel b).
To assess the ability of ATAC to inhibit targeted neurons, and to test the functionality of this technology in a behavioral paradigm, FUS-BBBO was used to target inhibitory DREADDs (hM4Di) to ventral and dorsal hippocampus (FIG. 5, panel a), and the impact of CNO administration on the formation of contextual fear memories was assessed. This well-established behavioral paradigm has been used in studies of anxiety, phobias, PTSD and fear circuitry[99]° [100]. Fear conditioning has also served as a testing ground for other novel neuromodulatory techniques. Since the hippocampus plays an essential role in memory formation, it is hypothesized that inhibiting it noninvasively using the ATAC strategy would reduce the ability of mice to form fear memories.
Two groups of control mice were either completely untreated or received intravenous virus without FUS-BBBO. After 6-8 weeks, the mice underwent a fear conditioning protocol (FIG. 5, panel a). In this protocol, the mice are placed in a unique environment (defined by chamber shape, lighting, smell and sound; Context A in FIG. 5, panel a) while receiving three electric foot shocks, causing them to associate this environment with the noxious stimulus in a process known as context fear conditioning. […]

[5] = biological target: T1, hM3Dq; assay: c-Fos activation in dorsal CA3 of hippocampus after CNO in mice expressing hM3Dq-mCherry (ATAC); format: in vivo; parameters: host or cells: mouse (C57BL6J) hippocampal excitatory neurons transduced in vivo with AAV9; conditions: CNO 1 mg/kg IP, 2.5 h, 22 weeks after FUS-BBBO, n=6
Method: C57BL6J male mice of 13 weeks of age underwent FUS-BBBO to administer AAV9 carrying hM3Dq-mCherry into the hippocampus. Subsequently, mice were housed singly to reduce background C-fos expression. After 22 weeks of expression, mice received an IP injection of 1 mg/kg CNO in sterile saline, and were returned to home cages. After 150 minutes, mice were anesthetized using Ketamine/Xylazine solution (80 mg/kg and 10 mg/kg, respectively, in PBS) and perfused with a cold PBS/Heparin (10 U/ml), and immediately afterwards with 10% Neutral Buffered Formalin (NBF). Their brains were extracted and post-fixed in 10% NBF for at least 24 hours. Brain sections (50 μm) were obtained using a VF-300 compresstome (Precisionary Instruments). […]
as §2, with “site.” for “site. TH-CRE mice expressed hM3Dq for 9 weeks after FUS-BBBO, and then were given 1 mg/kg CNO. After 2 h, they were anesthetized with ketamine/xylazine (80/10 mg/kg in PBS) and perfused using cold heparine/PBS (10 u) and then 10% NBF.”

In the case of `C[N+]1([O-])CCN(C2=Nc3cc(Cl)ccc3Nc3ccccc32)CC1` [CNO, clozapine-N-oxide], the “cued freezing at the end of the training session” value [1] is reported as “unaffected”, the “increase in activation (c-Fos) among TH-positive neurons, ATAC-targeted side versus contralateral” value [2] is reported as 7.3 fold and the exploratory behavior [3] is reported as “unaffected”. The “time spent freezing in fear recall context” value ([4]; ATAC mice (hM4Di), CNO 10 mg/kg IP 40-60 min before conditioning, recall 24 h later, saline 53.2%) was 21.8%, the “context fear (freezing) without excluding mice with expression below 30%” value ([4]; ATAC mice treated with CNO, all mice, saline 53.2%) was 34% and the “reduction in fear memory versus saline” value ([4]; ATAC mice, CNO before conditioning, n=13 and 7) was “more than 2 fold”. The “context fear relative to untreated controls” value ([4]; CNO treatment alone in wild-type mice) was “did not result in a reduction in context fear”, the “correlation (r) of DREADD expression in dorsal CA3 with formation of context fear memories” value ([4]; mice treated with CNO, all mice, n=11) was 0.62 and the “reduction in fear memory formation” value ([4]; single injection of CNO several weeks after FUS-BBBO) was 2.4 fold. The “context fear relative to untreated controls” value ([4]; systemic AAV9 injection without FUS-BBBO, CNO) was “did not result in a reduction in context fear” and the “likelihood of c-Fos staining, hM3Dq-positive cells versus cells not expressing hM3Dq” value [5] was 5.8 times.

Source: patent publication US11400168B2, “Methods and systems for noninvasive control of brain cells and related vectors and compositions” (CALIFORNIA INSTITUTE OF TECHNOLOGY, priority 2017, dated 2022)
